Reference: US8722687B2, “Imidazo [1,2-A]pyridine derivatives as FGFR kinase inhibitors for use in therapy” (Astex Therapeutics Ltd, priority 2009, dated 2014)

Assays:
[1] = target: T1, VEGFR2 (Homo sapiens, UniProt P35968); test: VEGFR2 in vitro kinase inhibitory activity assay; format: biochemical; details: read-out: VEGFR2 IC50(μM) or % I
T1 construct: purchased Upstate
Experimental: (§1) FGFR3, VEGFR2 and PDGFR in vitro Kinase Inhibitory Activity Assays
(§2) Enzymes (from Upstate), prepared at 2× final concentration, were incubated with test compounds, biotinylated Flt3 substrate (biotin-VASSDNEYFYVDF) (Cell Signalling Technology Inc.) and ATP in the appropriate assay buffer (Table 1). The reaction was allowed to proceed for 3 hours (FGFR3), 1 hour (VEGFR2, PDGFR-beta) at room temperature on a plate shaker at 700 rpm before being stopped with 35 mM EDTA, pH 8 (FGFR3, VEGFR2) or 55 mM EDTA, pH 8 (PDGFR-beta). 5× detection mix/50 mM HEPES pH 7.5, 0.1% BSA, 11.34 nM Eu-anti-pY (PY20) (PerkinElmer) 74 nM SA-XL665 (Cisbio) for FGFR3, 50 mM HEPES, pH 7.5, 0.1% BSA, 11.34 nM Eu-anti-pY (PY20), 187.5 nM SA-XL665 for VEGFR2 and 50 mM HEPES, pH 7.5, 0.1% BSA, 11.34 nM Eu-anti-pY (PT66) (PerkinElmer), 375 nM SA-XL665 (Cisbio) for PDGFR-beta) was then added to each well and the plate sealed and incubated at room temperature for one hour on a plate shaker at 700 rpm. The plate was then read on a Packard Fusion plate reader or a BMG Pherastar both in TRF mode.
Kinase Assay buffers were:
B: 50 mM HEPES pH 7.5, 6 mM MnCl2, 1 mM DTT, 0.01% TritonX-100, 0.1 mM Sodium orthovanadate

[2] = target: T2, FGFR3 (Homo sapiens, UniProt P22607); test: FGFR3 in vitro kinase inhibitory activity assay; format: biochemical; details: for IC50: read-out: FGFR3 IC50(μM) or % I
T2 construct: purchased Upstate
Experimental: as §1, §2

[3] = tested on: human prostate cancer PC3 cells; test: EB1 cellular assay (Eb1 Comet assay, microtubule disruption); format: cell-based; details: PC-3, lowest active concentration: Eb1 foci absent in at least 50% of treated PC3 cells, 1 hour, read-out: Eb1 LAC
Experimental: The Eb1 Comet assay relies on the detection of the Eb1 protein at the plus end of polymerizing microtubules (Mimori-Kiyosue, 2000) using indirect immunofluorescence. Disruption of microtubule dynamics through de-polymerization or stabilization results in a de-localization of Eb1 from the growing microtubule ends and this is visualized by the disappearance of Eb1 containing cytoplasmic foci.
Briefly, human prostate cancer PC3 cells obtained from the American Type Culture Collection were grown in 96-well plates (Greiner, cat. no. 655090) in HAM's F12 medium as recommended by the provider (ATCC). The cells were treated for 1 hour at 37° C. with compounds dissolved in DMSO (0.6% final DMSO concentration). The culture medium was then removed by aspiration and the cells were fixed by adding cold methanol (−20° C.). After a 15 minutes incubation at −20° C., the cells were washed twice with DPBS (Gibco) containing 0.5% Triton X-100. Mouse Eb1 antibody (BD Transduction Laboratories, cat. no. 610534) was added to the cells (1/250 dilution in DPBS containing 1% BSA) and incubated overnight at room temperature. The antibody was subsequently removed and the cells washed twice with DPBS, 0.5% Triton X-100. Secondary goat anti-mouse antibody conjugated to Alexa 488 fluorescent dye (Molecular Probes) was added at a 1/500 dilution in DPBS, 1% BSA and incubated for 1 hour at 37° C. The cells were washed twice with DPBS, 0.5% Triton X-100 and then DPBS containing 0.5% Triton X-100 and 1/5000 Hoechst 33342 (Molecular Probes) was added. Microscopy based Eb1 foci visualization was carried out using an IN Cell Analyser 1000 (Amersham Biosciences) using a 20× objective. Compound dependent microtubule disruption was visually determined by the disappearance in Eb1 foci. The lowest active concentration (LAC) was determined as the concentration where Eb1 foci were absent in at least 50% of the treated cells. Herein the effects of test compounds are expressed as pLAC (the negative log value of the LAC-value)

T1 sequence (P35968 20-1356): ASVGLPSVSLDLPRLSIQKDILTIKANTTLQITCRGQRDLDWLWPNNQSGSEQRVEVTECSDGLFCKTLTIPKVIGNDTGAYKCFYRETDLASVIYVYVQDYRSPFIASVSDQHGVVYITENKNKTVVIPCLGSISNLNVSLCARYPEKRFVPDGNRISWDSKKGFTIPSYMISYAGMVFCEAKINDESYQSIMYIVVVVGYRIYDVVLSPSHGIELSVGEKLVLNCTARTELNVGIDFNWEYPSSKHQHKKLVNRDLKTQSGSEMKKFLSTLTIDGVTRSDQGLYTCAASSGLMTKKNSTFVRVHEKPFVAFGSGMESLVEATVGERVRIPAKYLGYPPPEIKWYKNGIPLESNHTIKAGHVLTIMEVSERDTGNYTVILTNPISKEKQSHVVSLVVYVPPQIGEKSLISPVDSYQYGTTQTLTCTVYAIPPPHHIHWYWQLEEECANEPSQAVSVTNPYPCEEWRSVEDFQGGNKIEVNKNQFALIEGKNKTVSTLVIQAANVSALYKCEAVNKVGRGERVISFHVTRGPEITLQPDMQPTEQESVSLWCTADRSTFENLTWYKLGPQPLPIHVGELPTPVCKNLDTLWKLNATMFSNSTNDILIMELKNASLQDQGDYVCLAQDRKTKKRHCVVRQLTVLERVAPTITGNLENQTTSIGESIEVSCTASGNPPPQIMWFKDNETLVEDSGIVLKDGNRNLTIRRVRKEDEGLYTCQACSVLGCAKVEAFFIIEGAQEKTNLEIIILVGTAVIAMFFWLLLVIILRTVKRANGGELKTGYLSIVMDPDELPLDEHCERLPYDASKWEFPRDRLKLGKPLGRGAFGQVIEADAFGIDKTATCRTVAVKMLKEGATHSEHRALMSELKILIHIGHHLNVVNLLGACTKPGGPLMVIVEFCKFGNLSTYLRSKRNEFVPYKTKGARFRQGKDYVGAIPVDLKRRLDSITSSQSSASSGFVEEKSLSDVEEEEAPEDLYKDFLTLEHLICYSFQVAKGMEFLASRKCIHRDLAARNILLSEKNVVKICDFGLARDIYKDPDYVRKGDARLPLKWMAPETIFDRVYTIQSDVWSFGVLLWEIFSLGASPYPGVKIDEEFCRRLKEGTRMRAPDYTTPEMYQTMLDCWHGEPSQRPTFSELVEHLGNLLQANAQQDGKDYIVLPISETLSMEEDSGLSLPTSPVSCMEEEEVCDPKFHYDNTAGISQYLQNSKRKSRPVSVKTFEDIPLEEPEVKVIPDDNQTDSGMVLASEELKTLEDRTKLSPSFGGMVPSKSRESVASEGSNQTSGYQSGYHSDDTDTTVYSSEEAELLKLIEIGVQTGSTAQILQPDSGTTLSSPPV
T2 sequence (P22607 23-806): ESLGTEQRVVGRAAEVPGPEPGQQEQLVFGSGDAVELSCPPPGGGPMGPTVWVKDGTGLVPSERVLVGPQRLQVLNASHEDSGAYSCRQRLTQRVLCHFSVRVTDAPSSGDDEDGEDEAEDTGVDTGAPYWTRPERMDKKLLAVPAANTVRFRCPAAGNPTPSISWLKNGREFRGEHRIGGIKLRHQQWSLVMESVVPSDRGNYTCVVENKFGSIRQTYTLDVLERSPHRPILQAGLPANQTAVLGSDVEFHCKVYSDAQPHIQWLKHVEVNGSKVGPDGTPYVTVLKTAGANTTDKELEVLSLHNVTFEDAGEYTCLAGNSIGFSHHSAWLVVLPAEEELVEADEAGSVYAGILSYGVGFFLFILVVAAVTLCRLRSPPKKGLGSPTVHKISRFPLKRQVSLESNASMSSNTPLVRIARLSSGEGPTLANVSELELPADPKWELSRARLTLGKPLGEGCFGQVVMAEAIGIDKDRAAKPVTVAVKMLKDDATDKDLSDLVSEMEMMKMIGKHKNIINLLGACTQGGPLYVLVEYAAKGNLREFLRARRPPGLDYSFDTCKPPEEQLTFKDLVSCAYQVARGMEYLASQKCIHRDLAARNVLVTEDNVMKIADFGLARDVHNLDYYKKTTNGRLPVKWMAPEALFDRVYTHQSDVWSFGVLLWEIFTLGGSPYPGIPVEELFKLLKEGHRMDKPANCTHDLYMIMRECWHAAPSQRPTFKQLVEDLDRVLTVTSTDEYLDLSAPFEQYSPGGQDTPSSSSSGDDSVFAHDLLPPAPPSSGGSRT

For `CC(C)Oc1cc(NC(=O)NCC(F)(F)F)cc(-c2cnc3cc(-c4ccnc(C(F)(F)F)n4)ccn23)c1` [Compound F-8, 1-{3-Isopropoxy-5-[7-(2-trifluoromethyl-pyrimidin-4-yl)-imidazo[1,2-a]pyridin-3-yl]-phenyl}-3-(2,2,2-trifluoro-ethyl)-urea], the IC50 [1] was 1.2 µM, the IC50 [2] was 0.034 µM and the minimal effective concentration [3] was 5 µM.

`CC(C)Oc1cc(NC(=O)NCC(F)(F)F)cc(-c2cnc3cc(-c4nccc(C(C)C)n4)ccn23)c1` [Compound F-29, 1-{3-Isopropoxy-5-[7-(4-isopropyl-pyrimidin-2-yl)-imidazo[1,2-a]pyridin-3-yl]-phenyl}-3-(2,2,2-trifluoroethyl)-urea] was tested, and the inhibition at 10 µM ([1]; 1 h, % I at 10 μM) was 53%, the IC50 [2] was 0.092 µM and the minimal effective concentration [3] was > 10 µM.

In the case of `CC(C)Oc1cc(NC(=O)NCC(F)(F)F)cc(-c2cnc3cc(OCCCO)ccn23)c1` [Compound F-18, 1-{3-[7-(3-Hydroxy-propoxy)-imidazo[1,2-a]pyridin-3-yl]-5-isopropoxy-phenyl}-3-(2,2,2-trifluoro-ethyl)-urea], the IC50 [1] is reported as 0.67 µM, the IC50 [2] is reported as 0.02 µM and the minimal effective concentration [3] is reported as 5 µM.

`CC(C)Oc1cc(NC(=O)NCC(F)(F)F)cc(-c2cnc3cc(N4CCC(F)(F)CC4)ccn23)c1` [Compound F-13, 1-{3-[7-(4,4-Difluoro-piperidin-1-yl)-imidazo[1,2-a]pyridin-3-yl]-5-isopropoxy-phenyl}-3-(2,2,2-trifluoro-ethyl)-urea] gave an inhibition at 3 µM ([1]; 1 h, % I at 3 μM) of 55%, an IC50 [2] of 0.061 µM and a minimal effective concentration [3] of 5 µM.

`Cc1nnc(-c2ccn3c(-c4cc(NC(=O)NCC(F)(F)F)cc(OC(C)C)c4)cnc3c2)s1.Cl` [Compound F-20, 1-{3-Isopropoxy-5-[7-(5-methyl-[1,3,4]thiadiazol-2-yl)-imidazo[1,2-a]pyridin-3-yl]-phenyl}-3-(2,2,2-trifluoro-ethyl)-urea] showed an IC50 [1] of 0.029 µM, an IC50 [2] of 0.00096 µM and a minimal effective concentration [3] of 0.1 µM.

Work on `CC(C)Oc1cc(NC(=O)NCC(F)(F)F)cc(-c2cnc3cc(OCCO)ccn23)c1` [Compound F-17, 1-{3-[7-(2-Hydroxy-ethoxy)-imidazo[1,2-a]pyridin-3-yl]-5-isopropoxy-phenyl}-3-(2,2,2-trifluoro-ethyl)-urea] yielded an IC50 [1] of 0.51 µM, an IC50 [2] of 0.017 µM and a minimal effective concentration [3] of 3 µM.

For `COCc1cc(NC(=O)NCC(F)(F)F)cc(-c2cnc3cc(-c4nnc(C)o4)ccn23)c1` [Compound F-7, 1-{3-Methoxymethyl-5-[7-(5-methyl-[1,3,4]oxadiazol-2-yl)-imidazo[1,2-a]pyridin-3-yl]-phenyl}-3-(2,2,2-trifluoro-ethyl)-urea], the IC50 [1] was 0.17 µM, the IC50 [2] was 0.018 µM and the minimal effective concentration [3] was 10 µM.

`Cc1nc(N)cc(-c2ccn3c(-c4cc(NC(=O)NCC(F)(F)F)cc(OC(C)C)c4)cnc3c2)n1` [Compound F-4, 1-{3-[7-(6-Amino-2-methyl-pyrimidin-4-yl)-imidazo[1,2-a]pyridin-3-yl]-5-isopropoxy-phenyl}-3-(2,2,2-trifluoro-ethyl)-urea] was tested, and the IC50 [1] was 0.1 µM, the “FGFR3 IC50(μM) or % I” value ([2]; % I at 0.003 (unit not given)) was 45.0% at 0.003 and the minimal effective concentration [3] was 1 µM.

Molecule `COCc1cc(NC(=O)NCC(F)(F)F)cc(-c2cnc3cc(-c4ccnc(C(F)(F)F)n4)ccn23)c1` [Compound F-9, 1-{3-Methoxymethyl-5-[7-(2-trifluormethyl-pyrimidin-4-yl)-imidazo[1,2-a]pyridin-3-yl]-phenyl}-3-(2,2,2-trifluoro-ethyl)-urea] has an IC50 [1] of 0.057 µM, an IC50 [2] of 0.0093 µM and a minimal effective concentration [3] of 2 µM.

In the case of `CCNC(=O)Nc1cc(OC(C)C)cc(-c2cnc3cc(-c4nnc(C)s4)ccn23)c1` [Compound F-23, 1-Ethyl-3-{3-isopropoxy-5-[7-(5-methyl-[1,3,4]thiadiazol-2-yl)-imidazo[1,2-a]pyridin-3-yl]-phenyl}-urea], the IC50 [1] is reported as 0.087 µM, the IC50 [2] is reported as 0.004 µM and the minimal effective concentration [3] is reported as 5 µM.

`Cc1cn(-c2ccn3c(-c4cc(NC(=O)NCC(F)(F)F)cc(OC(C)C)c4)cnc3c2)cn1` [Compound F-28, 1-{3-Isopropoxy-5-[7-(4-methylimidazol-1-yl)-imidazo[1,2-a]pyridin-3-yl]-phenyl}-3-(2,2,2-trifluoro-ethyl)-urea] was tested, and the IC50 [1] was 0.077 µM, the IC50 [2] was 0.0016 µM and the minimal effective concentration [3] was 5 µM.

For `Cc1nnc(-c2ccn3c(-c4cc(NC(=O)NCC(F)(F)F)cc(OC5CCC5)c4)cnc3c2)o1` [Compound F-11, 1-{3-Cyclobutoxy-5-[7-(5-methyl-[1,3,4]oxadiazol-2-yl)-imidazo[1,2-a]pyridin-3-yl]-phenyl}-3-(2,2,2-trifluoro-ethyl)-urea], the inhibition at 1 µM ([1]; 1 h, % I at 1 μM) was 59%, the IC50 [2] was 0.046 µM and the minimal effective concentration [3] was > 10 µM.

Molecule `CC(C)Oc1cc(NC(=O)NCC(F)(F)F)cc(-c2cnc3cc(-c4nncs4)ccn23)c1.Cl` [Compound F-19, 1-[3-Isopropoxy-5-(7-[1,3,4]thiadiazol-2-yl-imidazo[1,2-a]pyridin-3-yl)-phenyl]-3-(2,2,2-trifluoro-ethyl)-urea] has an IC50 [1] of 0.092 µM, an IC50 [2] of 0.00247 µM and a minimal effective concentration [3] of 3 µM.

With `CC(C)Oc1cc(NC(=O)NCC(F)(F)F)cc(-c2cnc3cc(-c4ncccn4)ccn23)c1` [Compound F-2, 1-[3-Isopropoxy-5-(7-pyrimidin-2-yl-imidazo[1,2-a]pyridin-3-yl)-phenyl]-3-(2,2,2-trifluoro-ethyl)-urea] the IC50 [1] was 1.14 µM, the IC50 [2] was 0.0144 µM and the minimal effective concentration [3] was > 10 µM.

In the case of `CCNC(=O)Nc1cc(OC(C)C)cc(-c2cnc3cc(-c4nncs4)ccn23)c1` [Compound F-10, 1-Ethyl-3-[3-isopropoxy-5-(7-[1,3,4]thiadiazol-2-yl-imidazo[1,2-a]pyridin-3-yl)-phenyl]-urea], the IC50 [1] is reported as 0.36 µM, the IC50 [2] is reported as 0.013 µM and the minimal effective concentration [3] is reported as 5 µM.

`CC(C)Oc1cc(NC(=O)NCC(F)(F)F)cc(-c2cnc3cc(C(=O)C4CC4)ccn23)c1` [Compound F-6, 1-[3-(7-Cyclopropanecarbonyl-imidazo[1,2-a]pyridin-3-yl)-5-isopropoxy-phenyl]-3-(2,2,2-trifluoro-ethyl)-urea] gave an IC50 [1] of 0.074 µM, an IC50 [2] of 0.0012 µM and a minimal effective concentration [3] of 3 µM.

For `CC(C)Oc1cc(NC(=O)NCC(F)(F)F)cc(-c2cnc3cc(-c4ncc(F)c(N)n4)ccn23)c1` [Compound F-1, 1-{3-[7-(4-Amino-5-fluoro-pyrimidin-2-yl)-imidazo[1,2-a]pyridin-3-yl]-5-isopropoxy-phenyl}-3-(2,2,2-trifluoro-ethyl)-urea], the IC50 [1] was 1.35 µM, the IC50 [2] was 0.0072 µM and the minimal effective concentration [3] was > 10 µM.

`CC(C)Oc1cc(NC(=O)NCC(F)(F)F)cc(-c2cnc3cc(-c4nccc(C(C)(C)CO)n4)ccn23)c1` [Compound F-27, 1-(3-{7-[4-(2-Hydroxy-1,1-dimethylethyl)-pyrimidin-2-yl]-imidazo[1,2-a]pyridin-3-yl}-5-isopropoxy-phenyl)-3-(2,2,2-trifluoro-ethyl)-urea] was tested, and the IC50 [1] was 1.2 µM, the IC50 [2] was 0.042 µM and the minimal effective concentration [3] was > 10 µM.

With `Cc1nnc(-c2ccn3c(-c4cc(NC(=O)NCC(F)(F)F)cc(OC(C)C)c4)cnc3c2)o1` [Compound F-5, 1-{3-Isopropoxy-5-[7-(5-methyl-[1,3,4]oxadiazol-2-yl)-imidazo[1,2-a]pyridin-3-yl]-phenyl}-3-(2,2,2-trifluoro-ethyl)-urea] the IC50 [1] was 0.635 µM, the IC50 [2] was 0.0154 µM and the minimal effective concentration [3] was > 10 µM.
